For orientation: IC50 means the point on the concentration scale where inhibition reaches its midpoint.

Results on seven compounds are retold here after patent US20090048218A1, “17Beta-CYANO-18A-HOMO-19-NOR-ANDROST-4-ENE DERIVATIVE, ITS USE AND MEDICAMENTS COMPRISING THE DERIVATIVE” (priority 2007, published 2009).

One test deals with T1, PR (Rattus norvegicus, UniProt Q63449).
T1 construct: The maintenance of pregnancy test on ovarectomized rats serves for the determination of the peripheral gestagenic activity of a compound; from tissue; host or cells: whole animal: pregnant, ovariectomized rats
T1 sequence (Q63449 1-923): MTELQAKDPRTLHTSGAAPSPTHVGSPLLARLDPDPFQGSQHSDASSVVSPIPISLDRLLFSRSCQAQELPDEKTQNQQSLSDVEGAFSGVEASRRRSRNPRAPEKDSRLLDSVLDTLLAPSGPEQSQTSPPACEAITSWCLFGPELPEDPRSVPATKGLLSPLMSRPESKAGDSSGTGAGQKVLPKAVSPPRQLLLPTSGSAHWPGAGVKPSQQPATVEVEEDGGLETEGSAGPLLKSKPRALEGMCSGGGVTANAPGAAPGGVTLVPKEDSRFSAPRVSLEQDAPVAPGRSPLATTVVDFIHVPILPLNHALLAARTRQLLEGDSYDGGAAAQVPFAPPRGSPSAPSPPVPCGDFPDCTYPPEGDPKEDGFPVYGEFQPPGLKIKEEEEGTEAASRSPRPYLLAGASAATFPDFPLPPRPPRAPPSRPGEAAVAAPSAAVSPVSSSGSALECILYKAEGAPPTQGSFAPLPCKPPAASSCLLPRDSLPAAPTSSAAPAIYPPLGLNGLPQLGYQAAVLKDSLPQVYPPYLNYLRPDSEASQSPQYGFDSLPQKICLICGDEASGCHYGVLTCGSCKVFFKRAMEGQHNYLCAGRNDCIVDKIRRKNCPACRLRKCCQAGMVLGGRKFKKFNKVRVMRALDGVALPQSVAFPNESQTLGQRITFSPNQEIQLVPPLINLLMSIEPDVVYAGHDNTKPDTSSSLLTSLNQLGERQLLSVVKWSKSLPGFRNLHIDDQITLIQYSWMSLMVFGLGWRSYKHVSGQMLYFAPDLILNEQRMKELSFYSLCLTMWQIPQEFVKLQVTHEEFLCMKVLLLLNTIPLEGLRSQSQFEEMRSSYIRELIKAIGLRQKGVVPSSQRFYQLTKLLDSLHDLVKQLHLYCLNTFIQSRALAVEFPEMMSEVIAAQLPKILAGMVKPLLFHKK
Nature of the test: maintenance of pregnancy test on the rat. The format is in vivo. The conditions noted are these: ovarectomized pregnant rats; for PR in vivo ED50 (pregnancy-maintaining dose): s.c. once daily from day 8 to day 15 or 21, with oestrone 5 μg/kg/day. The text has this:
Carrying out the maintenance of pregnancy test on the rat:
In pregnant rats, the removal of the corpora lutea or oophorectomy induces an abortion. By means of the exogenous administration of progestins (gestagens) in combination with a suitable dose of an oestrogen, the maintenance of pregnancy is possible. The maintenance of pregnancy test on ovarectomized rats serves for the determination of the peripheral gestagenic activity of a compound.
Rats were paired overnight during proestrus. Pairing was checked on the morning of the following day by the appraisal of a vaginal smear. The presence of the sperm was evaluated here as day 1 of a commencing pregnancy. On day 8 of the pregnancy, the animals were ovarectomized under ether anaesthesia. The treatment with test compound and exogenous oestrogen (oestrone, 5 μg/kg/day) was carried out subcutaneously once daily from day 8 to day 15 or day 21 of the pregnancy. The first administration on day 8 was carried out two hours before oophorectomy. Intact control animals were given exclusively vehicle.
At the end of the experiment (day 15 or day 21), the animals were sacrificed under a CO2 atmosphere, and live foetuses (foetuses having a beating heart) and implantation sites (early resorptions and dead foetuses including autolysis and atrophic placentas) were counted in both uterine horns. On day 22, it was moreover possible to examine foetuses for malformations. In uteri without foetuses or implantation sites, the number of nidation sites was determined by staining with 10% strength ammonium sulphide solution. The maintenance of pregnancy rate was calculated as the quotient of the number of living foetuses and the total number of nidation sites (both resorbed and dead foetuses and nidation sites). For drospirenone, this value is 3.5 mg/kg/day.

The target in test [1] is T2, mineralcorticoid receptor (MR) (Homo sapiens, UniProt P08235).
T2 sequence (P08235 1-984): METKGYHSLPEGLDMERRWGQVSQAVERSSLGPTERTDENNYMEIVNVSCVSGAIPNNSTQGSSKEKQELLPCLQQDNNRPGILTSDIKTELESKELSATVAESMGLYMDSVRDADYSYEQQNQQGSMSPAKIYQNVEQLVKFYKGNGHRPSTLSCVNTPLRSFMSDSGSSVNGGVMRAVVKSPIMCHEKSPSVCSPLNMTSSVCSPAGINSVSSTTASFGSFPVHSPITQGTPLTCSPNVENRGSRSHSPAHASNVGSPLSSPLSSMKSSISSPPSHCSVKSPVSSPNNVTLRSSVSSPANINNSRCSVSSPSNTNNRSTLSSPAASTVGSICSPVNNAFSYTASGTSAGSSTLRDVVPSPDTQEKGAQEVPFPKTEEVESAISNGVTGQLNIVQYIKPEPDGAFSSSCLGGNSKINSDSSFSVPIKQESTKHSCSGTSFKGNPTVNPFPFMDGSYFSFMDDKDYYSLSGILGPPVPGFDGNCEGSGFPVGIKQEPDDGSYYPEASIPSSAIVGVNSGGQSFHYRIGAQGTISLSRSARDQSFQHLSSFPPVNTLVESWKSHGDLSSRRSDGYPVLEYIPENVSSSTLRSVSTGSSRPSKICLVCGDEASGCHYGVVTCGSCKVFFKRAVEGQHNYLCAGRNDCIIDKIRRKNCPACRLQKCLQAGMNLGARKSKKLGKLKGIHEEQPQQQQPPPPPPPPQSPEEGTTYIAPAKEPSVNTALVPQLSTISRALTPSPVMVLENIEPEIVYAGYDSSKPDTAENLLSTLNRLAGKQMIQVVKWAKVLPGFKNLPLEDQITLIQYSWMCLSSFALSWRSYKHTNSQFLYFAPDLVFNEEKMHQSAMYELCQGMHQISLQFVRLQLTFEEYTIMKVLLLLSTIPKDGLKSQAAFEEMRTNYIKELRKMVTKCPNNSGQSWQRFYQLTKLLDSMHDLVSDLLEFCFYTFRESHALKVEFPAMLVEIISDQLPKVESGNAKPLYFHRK
As to the kind of experiment: MR antagonism, luciferase reporter cell line assay. Type of test: cell-based. The procedure: The derivatives according to the invention having the general chemical formula 1 have a very strong gestagenic activity. […] They should therefore have in vivo potassium-retaining, natriuretic (antimeralcorticoid) action. These properties were determined using the test described below:
For the culturing of the cells used for the assay, the culture medium used was DMEM (Dulbecco's Modified Eagle Medium: […] of glucose; PAA, #E15-009) with 10% FCS (Biochrom, S0115, batch #615B), 4 mM L-glutamine, 1% penicillin/streptomycin, 1 mg/ml of G418 and 0.5 μg/ml of puromycin.
Reporter cell lines were grown in a density of 4×10^4 cells per hollow in white, nontransparent tissue culture plates in each case having 96 hollows (PerkinElmer, #P12-106-017) and kept in 6% DCC—FCS (activated carbon-treated serum, for the removal of interfering components contained in the serum). The compounds to be investigated were added eight days later, and the cells were incubated with the compounds for 16 hours. The experiments were carried out in triplicate. At the end of the incubation, the effector-containing medium was removed and replaced by lysis buffer. After luciferase assay substrate (promega, #E1501) had been added, the plates containing the 96 hollows were then introduced into a microplate luminometer (Pherastar, BMG labtech), and the luminescence was measured. The IC50 values were evaluated using software for the calculation of dose-activity relationships.
(In general: In a reporter assay the amount or activity of a reporter protein is the signal.)

Setting [2] is: reporter cell lines, 16 hours incubation, luciferase luminescence, triplicate.
The mark [3] stands for this setting: reporter cell lines, 16 hours incubation, luciferase luminescence, triplicate, read-out: MR antagonism IC50.

Where two headings read alike, the source gives them in different places.

Turning to `CC[C@]12CC[C@H]3[C@@H](CCC4=CC(=O)CC[C@@H]43)[C@@H]1[C@@H]1C[C@@H]1[C@@H]2C#N` (single isomer, unassigned) [17β-Cyano-15β,16β-methylene-18a-homo-19-nor-androst-4-en-3-one], the “PR in vivo ED50 (pregnancy-maintaining dose)” value (“PR in vivo ED50” for short) at PR came to 0.01 mg/kg/d s.c. The compound also came in with a concentration for half-maximal inhibition (IC50) in test [1] of 18 nM. Besides, in test [1] (setting [2]), the “MR antagonism activity [% of the maximum effect]” value is on record as 103.44 % of the maximum effect.

Turning to `CC[C@]12CC[C@H]3[C@@H]([C@H]4C[C@H]4C4=CC(=O)CC[C@@H]43)[C@@H]1[C@@H]1C[C@@H]1[C@@H]2C#N` [17β-Cyano-6β,7β-15β,16β-bismethylene-18a-homo-19-nor-androst-4-en-3-one], the “PR in vivo ED50” value at PR was 0.1 mg/kg/d s.c. For the same compound, the “MR antagonism activity [% of the maximum effect]” value in test [1] (setting [2]) is reported as 97.52 % of the maximum effect. Also, the IC50 in test [1] (setting [3]) came out at 9.3 nM.

Regarding `CC[C@]12CC[C@H]3[C@@H]([C@H](C)CC4=CC(=O)CC[C@@H]43)[C@@H]1CC[C@@H]2C#N` [17β-Cyano-7α-methyl-18a-homo-19-nor-androst-4-en-3-one], the “MR antagonism activity [% of the maximum effect]” value in test [1] (setting [2]) was 99.07 % of the maximum effect. Also, the IC50 in test [1] (setting [3]) was found to be 16 nM.

For the compound `CC[C@]12CC[C@H]3[C@@H]([C@@H]4C[C@@H]4C4=CC(=O)CC[C@@H]43)[C@@H]1[C@@H]1C[C@@H]1[C@]2(C)C#N` [17β-Cyano-17α-methyl-6α,7α-methylene-15β,16β-methylene-18a-homo-19-nor-androst-4-en-3-one], the “PR in vivo ED50” value at PR amounted to 1.1 mg/kg/d s.c. Also, the “MR antagonism activity [% of the maximum effect]” value in test [1] (setting [2]) is 89.49 % of the maximum effect. For the same compound, the IC50 in test [1] (setting [3]) came to 100 nM.

For the compound `CC[C@]12CC[C@H]3[C@@H](CCC4=CC(=O)CC[C@@H]43)[C@@H]1[C@@H]1C[C@@H]1[C@]2(C)C#N` [17β-Cyano-17α-methyl-15β,16β-methylene-18a-homo-19-nor-androst-4-en-3-one], the “PR in vivo ED50” value on PR turned out to be 0.1 mg/kg/d s.c. For the same compound, the “MR antagonism activity [% of the maximum effect]” value in test [1] (setting [2]) is given as 64.87 % of the maximum effect. Moreover, in test [1] (setting [3]), the concentration for half-maximal inhibition (IC50) was found to be 0.48 nM.

With `CC[C@]12CC[C@H]3[C@@H](CCC4=CC(=O)CC[C@@H]43)[C@@H]1CC[C@@H]2C#N` [17β-Cyano-18a-homo-19-nor-androst-4-en-3-one], the “PR in vivo ED50” value at PR is listed as 2.3 mg/kg/d s.c. Moreover, the “MR antagonism activity [% of the maximum effect]” value in test [1] (setting [2]) is 94.48 % of the maximum effect. Besides, the IC50 in test [1] (setting [3]) turned out to be 9.1 nM.

Take `C[C@]12CCC(=O)C=C1[C@@H]1C[C@@H]1[C@H]1[C@@H]3[C@@H]4C[C@@H]4[C@@]4(CCC(=O)O4)[C@@]3(C)CC[C@@H]12` [drospirenone, 6β, 7β-15β,16β-dimethylene-3-oxo-17-pregn-4-ene-21,17β-carbolactone, reference compound]: on PR (subcutaneous, with oestrone 5 μg/kg/day), the “pregnancy-maintaining dose (ED50)” value amounted to 3.5 mg/kg/day.
